Some results are limits rather than exact numbers.

The record followed here is patent US7541359B2, “N-heteroarylpiperazinyl ureas as modulators of fatty acid amide hydrolase” (Janssen Pharmaceutica N.V., priority 2005, dated 2009).

What all share (assay type): biochemical
For one experiment, the target named is T1, Rat FAAH (Rattus norvegicus, UniProt P97612).
T1 construct: expressed in transfected cells; host or cells: SK-N-MC cells, electroporated, G418-selected clones
T1 sequence (P97612 1-579): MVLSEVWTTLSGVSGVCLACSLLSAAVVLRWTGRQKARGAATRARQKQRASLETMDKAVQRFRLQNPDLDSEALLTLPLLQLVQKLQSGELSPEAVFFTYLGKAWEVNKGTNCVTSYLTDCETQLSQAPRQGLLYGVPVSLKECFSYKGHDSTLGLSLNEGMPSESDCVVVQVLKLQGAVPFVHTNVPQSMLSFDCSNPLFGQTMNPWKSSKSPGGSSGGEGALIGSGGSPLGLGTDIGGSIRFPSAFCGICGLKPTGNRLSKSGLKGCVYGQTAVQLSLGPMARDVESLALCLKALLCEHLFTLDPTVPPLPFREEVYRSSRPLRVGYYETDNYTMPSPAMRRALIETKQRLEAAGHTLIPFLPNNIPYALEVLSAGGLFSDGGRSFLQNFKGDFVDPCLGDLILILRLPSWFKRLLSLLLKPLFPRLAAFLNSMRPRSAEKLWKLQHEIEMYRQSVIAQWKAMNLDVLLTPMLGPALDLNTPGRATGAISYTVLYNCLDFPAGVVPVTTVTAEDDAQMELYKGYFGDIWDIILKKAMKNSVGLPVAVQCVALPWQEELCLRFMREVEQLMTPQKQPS
In words: Assay Method 3: FAAH assay, homogenate of SK-N-MC cells transfected with rat FAAH. The note with it: rat FAAH transfected SK-N-MC cell homogenate; 3H-AEA tracer 80 nM; rt 1 h. The procedure: Assay Method 3 A. Transfection of Cells with Rat FAAH
A 10-cm tissue culture dish with a confluent monolayer of SK-N-MC cells was split 2 days (d) prior to transfection. Using sterile technique, the media was removed and the cells were detached from the dish by the addition of trypsin. One fifth of the cells were then placed onto a new 10-cm dish. Cells were grown in a 37° C. incubator with 5% CO2 in Minimal Essential Media Eagle with 10% Fetal Bovine Serum. After 2 d, cells were approximately 80% confluent. These cells were removed from the dish with trypsin and pelleted in a clinical centrifuge. The pellet was re-suspended in 400 μL complete media and transferred to an electroporation cuvette with a 0.4 cm gap between the electrodes. Supercoiled rat FMH cDNA (1 μg) was added to the cells and mixed. The voltage for the electroporation was set at 0.25 kV, and the capacitance was set at 960 μF. After electroporation, the cells were diluted into complete media (10 mL) and plated onto four 10-cm dishes. Because of the variability in the efficiency of electroporation, four different concentrations of cells were plated. […] After 10 d, dishes were analyzed for surviving colonies of cells. Dishes with well-isolated colonies were used. Cells from individual colonies were isolated and tested.
The assay mixture consisted of 50 μL of the cell homogenate, 10 μL of the test compound, and 40 μL of anandamide [1-^3H-ethanolamine] (^3H-AEA, Perkin-Elmer, 10.3 Ci/mmol), which was added last, for a final tracer concentration of 80 nM. The reaction mixture was incubated at rt for 1 h. During the incubation, 96-well Multiscreen filter plates (catalog number MAFCNOB50: Millipore, Bedford, Mass., USA) were loaded with 25 μL of activated charcoal (Multiscreen column loader, catalog number MACL09625, Millipore) and washed once with 100 μL of MeOH. […] After the 1 h incubation, 60 μL of the reaction mixture were transferred to the charcoal plates, which were then assembled on top of the DYNEX plates using Centrifuge Alignment Frames (catalog number MACF09604, Millipore). The unbound labeled ethanolamine was centrifuged through to the bottom plate (5 min at 2000 rpm), which was preloaded with the scintillant, as described above. The plates were sealed and left at rt for 1 h before counting on a Hewlett Packard TopCount.

Experiment [1] deals with T2, FAAH (Homo sapiens, UniProt O00519).
T2 sequence (O00519 1-579): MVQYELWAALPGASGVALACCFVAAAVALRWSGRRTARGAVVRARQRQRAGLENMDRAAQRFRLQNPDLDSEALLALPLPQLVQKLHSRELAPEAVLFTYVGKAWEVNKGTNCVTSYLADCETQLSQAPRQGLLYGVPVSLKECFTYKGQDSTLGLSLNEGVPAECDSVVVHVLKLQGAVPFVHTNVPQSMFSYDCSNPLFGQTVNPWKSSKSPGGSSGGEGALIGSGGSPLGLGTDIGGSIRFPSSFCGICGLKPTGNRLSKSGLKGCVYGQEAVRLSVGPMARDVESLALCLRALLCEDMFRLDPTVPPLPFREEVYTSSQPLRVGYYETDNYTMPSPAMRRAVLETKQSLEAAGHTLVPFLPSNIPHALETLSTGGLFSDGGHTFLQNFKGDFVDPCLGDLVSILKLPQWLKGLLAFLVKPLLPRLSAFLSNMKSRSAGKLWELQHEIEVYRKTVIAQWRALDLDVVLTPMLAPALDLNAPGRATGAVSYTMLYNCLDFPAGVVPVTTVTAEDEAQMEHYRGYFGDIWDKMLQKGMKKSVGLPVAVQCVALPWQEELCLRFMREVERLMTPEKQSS
In words: Assay Method 2: FAAH assay, homogenate of SK-N-MC cells transfected with human FAAH. The arrangement: expressed in transfected cells; host or cells: SK-N-MC cells, electroporated, G418-selected clones. The note with it: human FAAH transfected SK-N-MC cell homogenate; 3H-AEA tracer 80 nM; rt 1 h. The procedure: Assay Method 2 A. Transfection of Cells with Human FAAH
A 10-cm tissue culture dish with a confluent monolayer of SK-N-MC cells was split 2 days (d) prior to transfection. Using sterile technique, the media was removed and the cells were detached from the dish by the addition of trypsin. One fifth of the cells were then placed onto a new 10-cm dish. Cells were grown in a 37° C. incubator with 5% CO2 in Minimal Essential Media Eagle with 10% Fetal Bovine Serum. After 2 d, cells were approximately 80% confluent. These cells were removed from the dish with trypsin and pelleted in a clinical centrifuge. The pellet was re-suspended in 400 μL complete media and transferred to an electroporation cuvette with a 0.4 cm gap between the electrodes. Supercoiled human FMH cDNA (1 μg) was added to the cells and mixed. The voltage for the electroporation was set at 0.25 kV, and the capacitance was set at 960 μF. After electroporation, the cells were diluted into complete media (10 mL) and plated onto four 10-cm dishes. Because of the variability in the efficiency of electroporation, four different concentrations of cells were plated. The ratios used were 1:20, 1:10, and 1:5, with the remainder of the cells being added to the fourth dish. The cells were allowed to recover for 24 h before adding the selection media (complete media with 600 μg/mL G418). After 10 d, dishes were analyzed for surviving colonies of cells. Dishes with well-isolated colonies were used. Cells from individual colonies were isolated and tested.
The assay mixture consisted of 50 μL of the cell homogenate, 10 μL of the test compound, and 40 μL of anandamide [1-^3H-ethanolamine] (^3H-AEA, Perkin-Elmer, 10.3 Ci/mmol), which was added last, for a final tracer concentration of 80 nM. The reaction mixture was incubated at rt for 1 h. During the incubation, 96-well Multiscreen filter plates (catalog number MAFCNOB50; Millipore, Bedford, […]., USA) were loaded with 25 μL of activated charcoal (Multiscreen column loader, catalog number MACL09625, Millipore) and washed once with 100 μL of MeOH. Also during the incubation, 96-well DYNEX MicroLite plates (catalog number NL510410) were loaded with 100 μL of MicroScint40 (catalog number 6013641, Packard Bioscience, Meriden, Conn., USA). After the 1 h incubation, 60 μL of the reaction mixture were transferred to the charcoal plates, which were then assembled on top of the DYNEX plates using Centrifuge Alignment Frames (catalog number MACF09604, Millipore). The unbound labeled ethanolamine was centrifuged through to the bottom plate (5 min at 2000 rpm), which was preloaded with the scintillant, as described above. The plates were sealed and left at rt for 1 h before counting on a Hewlett Packard TopCount.

The target of experiment [2] is T2, FAAH. In words: Assay Method 1: FAAH assay, T84 cell homogenate, 3H-anandamide hydrolysis. The arrangement: T84 frozen pellets (contents of 1-4×15 cm culture dishes) were homogenized in 300 mL of FAAH assay buffer; endogenous in cells; host or cells: T84 cells (homogenate). Particulars: 3H-AEA tracer 200 nM, rt 1 h. The procedure: The assay mixture was prepared from 50 μL of the cell homogenate, 10 μL of the test compound, and 40 μL of anandamide [1-^3H-ethanolamine] (^3H-AEA; Perkin-Elmer, 10.3 Ci/mmol), which was added last, for a final tracer concentration of 200 nM. The reaction mixture was incubated at rt for 1 hour (h). During the incubation, 96-well Multiscreen filter plates (catalog number MAFCNOB50; Millipore, Bedford, Mass. USA) were loaded with 25 μL of activated charcoal (Multiscreen column loader, catalog number MACL09625, Millipore) and washed once with 100 μL of MeOH. […] After the 1 h incubation, 60 μL of the reaction mixture were transferred to the charcoal plates, which were then assembled on top of the DYNEX plates using Centrifuge Alignment Frames (catalog number MACF09604, Millipore). The unbound, labeled ethanolamine was centrifuged through to the bottom plate (5 min at 2000 rpm), which was preloaded with the scintillant, as described above. The plates were sealed and left at rt for 1 h before counting on a Hewlett Packard TopCount.

The IC50 is the concentration needed to halve the response being measured. `O=C(Nc1ccccc1)N1CCN(c2nc(-c3ccsc3)ns2)CC1` [Example 43, 4-(3-Thiophen-3-yl-[1,2,4]thiadiazol-5-yl)-piperazine-1-carboxylic acid phenylamide]: the figures for the 50% inhibitory concentration (IC50) on Rat FAAH and on FAAH [1] were 120 nM and 130 nM, respectively. The like results for `Cc1cccc(-c2nsc(N3CCN(C(=O)Nc4ccccc4)CC3)n2)c1` [Example 38, 4-(3-m-Tolyl-[1,2,4]thiadiazol-5-yl)-piperazine-1-carboxylic acid phenylamide] were, in that order, 84 nM and 43 nM. The like results for `O=C(Nc1ccccc1)N1CCN(c2nc(-c3cc(Cl)cc(Cl)c3)ns2)CC1` [Example 39, 4-[3-(3,5-Dichloro-phenyl)-[1,2,4]thiadiazol-5-yl]-piperazine-1-carboxylic acid phenylamide] were, in that order, 57 nM and 60 nM. `O=C(Nc1ccccc1)N1CCN(c2nc(N3CCOCC3)ns2)CC1` [Example 44, 4-(3-Morpholin-4-yl-[1,2,4]thiadiazol-5-yl)-piperazine-1-carboxylic acid phenylamide]: the IC50 against Rat FAAH and against FAAH [1] was greater than 10000 nM in each case. With `O=C(Nc1nccs1)N1CCN(c2nc(-c3ccccc3)ns2)CC1` [Example 32, 4-(3-Phenyl-[1,2,4]thiadiazol-5-yl)-piperazine-1-carboxylic acid thiazol-2-ylamide], the half-maximal inhibitory concentration (IC50) was 77 nM against Rat FAAH and 450 nM against FAAH [1]. As to `O=C(Nc1ccccc1)N1CCN(c2nc(-c3ccccc3)ns2)CC1` [Example 1, 4-(3-Phenyl-[1,2,4]thiadiazol-5-yl)-piperazine-1-carboxylic acid phenylamide], the midpoint of inhibition against Rat FAAH, the IC50, lay at 46 nM.

As to `O=C(Nc1ccccc1)N1CCN(c2nc(N3CCCCC3)ns2)CC1` [Example 27, 4-(3-Piperidin-1-yl-[1,2,4]thiadiazol-5-yl)-piperazine-1-carboxylic acid phenylamide], the IC50 came out at 1100 nM on Rat FAAH and 260 nM against FAAH [1]. The like results for `CC1CCN(c2nsc(N3CCN(C(=O)Nc4ccccc4)CC3)n2)CC1` [Example 29, 4-[3-(4-Methyl-piperidin-1-yl)-[1,2,4]thiadiazol-5-yl]-piperazine-1-carboxylic acid phenylamide] were, in that order, 5000 nM and greater than 10000 nM.

Turning to `O=C(Nc1ccccc1)N1CCN(c2nc(-c3cccs3)ns2)CC1` [Example 42, 4-(3-Thiophen-2-yl-[1,2,4]thiadiazol-5-yl)-piperazine-1-carboxylic acid phenylamide], the results for the IC50 on Rat FAAH and on FAAH [1] were 300 nM and 60 nM, respectively. Turning to `O=C(Nc1ccncc1)N1CCN(c2nc(-c3ccccc3)ns2)CC1` [Example 33, 4-(3-Phenyl-[1,2,4]thiadiazol-5-yl)-piperazine-1-carboxylic acid pyridin-4-ylamide], the IC50 against Rat FAAH came to 18 nM; against FAAH [2], 28 nM. With `O=C(Nc1ccccc1)N1CCN(c2nc(N3CCCC3)ns2)CC1` [Example 28, 4-(3-Pyrrolidin-1-yl-[1,2,4]thiadiazol-5-yl)-piperazine-1-carboxylic acid phenylamide], the concentration for half-maximal inhibition (IC50) came to 5000 nM at Rat FAAH and 3000 nM at FAAH [1]. As to `O=C(Nc1ncccn1)N1CCN(c2nc(-c3ccccc3)ns2)CC1` [Example 31, 4-(3-Phenyl-[1,2,4]thiadiazol-5-yl)-piperazine-1-carboxylic acid pyrimidin-2-ylamide], the IC50 at Rat FAAH turned out to be 30 nM; against FAAH [1] it was 160 nM. On to `O=C(Nc1ccccc1)N1CCN(c2nc(-c3ccco3)ns2)CC1` [Example 40, 4-(3-Furan-2-yl-[1,2,4]thiadiazol-5-yl)-piperazine-1-carboxylic acid phenylamide], for which the values for the IC50 at Rat FAAH and at FAAH [1] were 2000 nM and 540 nM, respectively.
